Here are results for four molecules from article PMC3914206.

Each structure is given as a SMILES string.

Holding throughout (format): binding
Experiment [1] addresses T1, panel of 442 kinases (Homo sapiens, UniProt P15735).
T1 construct: purchased KINOMEscan
T1 sequence (P15735 1-406): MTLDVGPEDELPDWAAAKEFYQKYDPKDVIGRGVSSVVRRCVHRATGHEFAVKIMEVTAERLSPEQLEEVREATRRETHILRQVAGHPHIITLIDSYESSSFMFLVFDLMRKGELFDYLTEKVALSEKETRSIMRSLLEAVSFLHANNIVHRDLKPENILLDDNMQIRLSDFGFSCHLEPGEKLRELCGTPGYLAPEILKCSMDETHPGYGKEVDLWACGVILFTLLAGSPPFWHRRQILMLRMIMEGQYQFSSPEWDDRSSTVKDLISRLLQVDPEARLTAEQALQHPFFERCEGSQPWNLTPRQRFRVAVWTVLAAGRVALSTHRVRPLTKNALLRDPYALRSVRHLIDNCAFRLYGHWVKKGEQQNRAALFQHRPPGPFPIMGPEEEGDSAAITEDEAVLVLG
Conditions: Compound Concentration 10 µM. An excerpt:
(§1) We assessed the selectivity of members of this scaffold using the KINOMEscan methodology across a near comprehensive panel of 442 kinases [[18,27]].

Experiment [2] concerns the target T2, panel of 442 kinases (Homo sapiens, UniProt Q16816).
T2 construct: purchased KINOMEscan
Conditions: Compound Concentration 10 µM.
Description: as §1

For experiment [3], the target named is T3, panel of 442 kinases (Homo sapiens, UniProt Q86Y07).
T3 construct: purchased KINOMEscan
Conditions: kinase VRK2; compound concentration 10 µM.
Description: as §1

T2 sequence (Q16816 whole entry): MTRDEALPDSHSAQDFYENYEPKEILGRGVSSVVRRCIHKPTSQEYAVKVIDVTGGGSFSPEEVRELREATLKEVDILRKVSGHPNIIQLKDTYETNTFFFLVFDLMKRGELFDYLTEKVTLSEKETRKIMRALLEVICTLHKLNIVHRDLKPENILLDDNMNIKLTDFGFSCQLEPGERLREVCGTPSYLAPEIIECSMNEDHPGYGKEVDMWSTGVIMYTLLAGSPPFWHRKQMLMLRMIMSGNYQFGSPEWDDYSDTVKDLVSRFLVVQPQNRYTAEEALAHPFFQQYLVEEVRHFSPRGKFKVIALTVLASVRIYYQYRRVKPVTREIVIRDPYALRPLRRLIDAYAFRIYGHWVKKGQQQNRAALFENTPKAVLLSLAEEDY
T3 sequence (Q86Y07 whole entry): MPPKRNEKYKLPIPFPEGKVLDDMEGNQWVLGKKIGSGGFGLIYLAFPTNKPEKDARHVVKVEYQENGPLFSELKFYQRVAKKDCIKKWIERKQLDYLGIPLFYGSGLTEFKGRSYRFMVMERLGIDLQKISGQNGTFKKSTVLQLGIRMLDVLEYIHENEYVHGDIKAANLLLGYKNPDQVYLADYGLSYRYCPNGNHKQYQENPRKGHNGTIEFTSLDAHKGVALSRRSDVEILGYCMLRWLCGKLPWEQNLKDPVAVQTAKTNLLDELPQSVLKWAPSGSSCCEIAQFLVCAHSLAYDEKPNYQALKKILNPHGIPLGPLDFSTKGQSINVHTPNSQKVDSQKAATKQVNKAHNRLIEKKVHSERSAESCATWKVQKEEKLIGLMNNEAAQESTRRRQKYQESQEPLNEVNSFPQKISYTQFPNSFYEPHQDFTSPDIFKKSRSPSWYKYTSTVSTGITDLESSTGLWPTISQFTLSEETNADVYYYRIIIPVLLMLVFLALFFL

For the molecule `COc1cc(C(=O)N2CCC(N3CCN(C)CC3)CC2)ccc1Nc1ncc2c(n1)N(C1CCCC1)c1ccccc1C(=O)N2C` [Compound 25, 11-cyclopentyl-2-((2-methoxy-4-(4-(4-methylpiperazin-1-yl)piperidine-1-carbonyl)phenyl)amino)-5-methyl-5H-benzo[e]pyrimido[5,4-b][1,4]diazepin-6(11H)-one], in experiment [1], the “KINOMEscan: PHKG2” value worked out at 68. Besides, in experiment [2], the “KINOMEscan: PHKG1” value was determined as 100. Besides, in experiment [3], the “% Ctrl, VRK2” value came to 100 % Ctrl.
In the same order, the values of `COc1cc(C(=O)N2CCC(N3CCN(C)CC3)CC2)ccc1Nc1ncc2c(n1)N1CCc3cccc(c31)C(=O)N2C` [Compound 24] are 47, 75 and 100 % Ctrl.
In the same order, the values of `COc1cc(C(=O)N2CCC(N3CCN(C)CC3)CC2)ccc1Nc1ncc2c(n1)N(C)c1ccccc1C(=O)N2C` [15 (LRRK2-IN-1)] are 33, 54 and 99 % Ctrl.
As for `CCOc1cc(C(=O)N2CCC(N3CCN(C)CC3)CC2)ccc1Nc1ncc2c(n1)N(C1CCCC1)c1ccccc1C(=O)N2C` [Compound 26], in experiment [1], the “KINOMEscan: PHKG2” value came to 90. In addition, the “KINOMEscan: PHKG1” value in experiment [2] is given as 100. For the same molecule, the “% Ctrl, VRK2” value in experiment [3] worked out at 82 % Ctrl.
